Measurements from PubChem BioAssay AID1963872 (Molecular Pharmacology Branch, DTP, NCI, 2024).

System: KRAS patient-derived spheroids with HUVEC/MSC, viability
Experiment: Anticancer human tumor 519858-162-T-J1-PDC patient-derived colon adenocarcinoma cell line growth inhibition [KRAS2]
Settings: for IC50: curve of first compound; for viability, T/C: stronger effect = lower value
How it was run: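 KRAS-mutant tumor cells were grown as spheroids with HUVEC endothelial cells and human MSCs as stroma. Targeted agents were tested alone and with KRAS pathway inhibitors. Doses started at or near clinical Cmax, or 10 microM, descending half-log.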

[1] = second compound 0.1 µM, first compound 0.0316 µM
[2] = second compound 0.1 µM, first compound 0.1 µM
[3] = second compound 0.1 µM, first compound 0.316 µM
[4] = second compound 0.1 µM, first compound 1 µM
[5] = second compound 0.1 µM, first compound 3.16 µM
[6] = second compound 0.1 µM, first compound 10 µM
[7] = second compound 0.316 µM, first compound 0.0316 µM
[8] = second compound 0.316 µM, first compound 0.1 µM
[9] = second compound 0.316 µM, first compound 0.316 µM
[10] = second compound 0.316 µM, first compound 1 µM
[11] = second compound 0.316 µM, first compound 3.16 µM
[12] = second compound 0.316 µM, first compound 10 µM
[13] = second compound 1 µM, first compound 0.0316 µM
[14] = second compound 1 µM, first compound 0.1 µM
[15] = second compound 1 µM, first compound 0.316 µM
[16] = second compound 1 µM, first compound 1 µM
[17] = second compound 1 µM, first compound 3.16 µM
[18] = second compound 1 µM, first compound 10 µM
[19] = second compound 3.16 µM, first compound 0.0316 µM
[20] = second compound 3.16 µM, first compound 0.1 µM
[21] = second compound 3.16 µM, first compound 0.316 µM
[22] = second compound 3.16 µM, first compound 1 µM
[23] = second compound 3.16 µM, first compound 3.16 µM
[24] = second compound 3.16 µM, first compound 10 µM
[25] = second compound 10 µM, first compound 0.0316 µM
[26] = second compound 10 µM, first compound 0.1 µM
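Further: compound exposure lasted seven days before readout.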
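Wherever viability, T/C is given: 100% = DMSO vehicle control viability.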

CC1OCC2(CCN(c3cnc(Sc4ccnc(N)c4Cl)c(N)n3)CC2)C1N (stereo not drawn) + C=CC(=O)N1CCN(c2nc(OCC3CCCN3C)nc3c2CCN(c2cccc4cccc(C)c24)C3)CC1CC#N
IC50 (second compound 0.0316 µM): > 10 µM
IC50 (second compound 0.1 µM): 2.28 µM
IC50 (second compound 0.316 µM): > 10 µM
IC50 (second compound 1 µM): 5.7 µM
IC50 (second compound 3.16 µM): < 0.0316 µM
viability, T/C (second compound 0.0316 µM, first compound 0.0316 µM): 90.8%
viability, T/C (second compound 0.0316 µM, first compound 0.1 µM): 84.2%
viability, T/C (second compound 0.0316 µM, first compound 0.316 µM): 96.5%
viability, T/C (second compound 0.0316 µM, first compound 1 µM): 85.4%
viability, T/C (second compound 0.0316 µM, first compound 3.16 µM): 64.9%
viability, T/C (second compound 0.0316 µM, first compound 10 µM): 53.9%
viability, T/C [1]: 82.5%
viability, T/C [2]: 75.8%
viability, T/C [3]: 75.7%
viability, T/C [4]: 55.9%
viability, T/C [5]: 46.8%
viability, T/C [6]: 48.1%
viability, T/C [7]: 94%
viability, T/C [8]: 69%
viability, T/C [9]: 58%
viability, T/C [10]: 52.8%
viability, T/C [11]: 67.1%
viability, T/C [12]: 62.1%
viability, T/C [13]: 87.3%
viability, T/C [14]: 81.1%
viability, T/C [15]: 62.2%
viability, T/C [16]: 82.4%
viability, T/C [17]: 54.9%
viability, T/C [18]: 41.9%
viability, T/C [19]: 33.9%
viability, T/C [20]: 42.9%
viability, T/C [21]: 42.3%
viability, T/C [22]: 52.7%
viability, T/C [23]: 25.5%
viability, T/C [24]: 30.1%

O=C(c1cc(Cc2n[nH]c(=O)c3ccccc23)ccc1F)N1CCN(C(=O)C2CC2)CC1 + C=CC(=O)N1CCN(c2nc(=O)n(-c3c(C)ccnc3C(C)C)c3nc(-c4c(O)cccc4F)c(F)cc23)C(C)C1
IC50 (second compound 0.1 µM): > 10 µM
IC50 (second compound 0.316 µM): > 10 µM
IC50 (second compound 1 µM): > 10 µM
IC50 (second compound 3.16 µM): > 10 µM
IC50 (second compound 10 µM): > 10 µM
viability, T/C [1]: 71.4%
viability, T/C [2]: 111%
viability, T/C [3]: 96.3%
viability, T/C [4]: 120%
viability, T/C [5]: 123%
viability, T/C [6]: 110%
viability, T/C [7]: 89.2%
viability, T/C [8]: 91.2%
viability, T/C [9]: 95.1%
viability, T/C [10]: 97.4%
viability, T/C [11]: 91.9%
viability, T/C [12]: 111%
viability, T/C [13]: 73.9%
viability, T/C [14]: 98.4%
viability, T/C [15]: 80.8%
viability, T/C [16]: 100%
viability, T/C [17]: 89.3%
viability, T/C [18]: 108%
viability, T/C [19]: 88.8%
viability, T/C [20]: 92.5%
viability, T/C [21]: 84%
viability, T/C [22]: 95%
viability, T/C [23]: 96.8%
viability, T/C [24]: 120%
viability, T/C [25]: 106%
viability, T/C [26]: 106%
viability, T/C (second compound 10 µM, first compound 0.316 µM): 72.5%
viability, T/C (second compound 10 µM, first compound 1 µM): 83.8%
viability, T/C (second compound 10 µM, first compound 3.16 µM): 86.1%
viability, T/C (second compound 10 µM, first compound 10 µM): 72.7%

CC(=O)Nc1cccc(-n2c(=O)n(C3CC3)c(=O)c3c(Nc4ccc(I)cc4F)n(C)c(=O)c(C)c32)c1
viability, T/C (compound 0.0001 µM): 82.5% [middle of 5 runs]
viability, T/C (compound 0.01 µM): 35.6% [middle of 5 runs]
viability, T/C (compound 0.0316 µM): 20.8% [middle of 5 runs]

Cn1ncnc1[C@H]1c2n[nH]c(=O)c3cc(F)cc(c23)N[C@@H]1c1ccc(F)cc1 + CC1OCC2(CCN(c3cnc(Sc4ccnc(N)c4Cl)c(N)n3)CC2)C1N
IC50 (second compound 0.1 µM): > 0.1 µM
IC50 (second compound 0.316 µM): > 0.1 µM
IC50 (second compound 1 µM): > 0.1 µM
IC50 (second compound 3.16 µM): > 0.1 µM
IC50 (second compound 10 µM): > 0.1 µM
viability, T/C (second compound 0.1 µM, first compound 0.000316 µM): 81.5%
viability, T/C (second compound 0.1 µM, first compound 0.001 µM): 81.4%
viability, T/C (second compound 0.1 µM, first compound 0.00316 µM): 91.9%
viability, T/C (second compound 0.1 µM, first compound 0.01 µM): 88.9%
viability, T/C [1]: 81.5%
viability, T/C [2]: 101%
viability, T/C (second compound 0.316 µM, first compound 0.000316 µM): 68%
viability, T/C (second compound 0.316 µM, first compound 0.001 µM): 87.3%
viability, T/C (second compound 0.316 µM, first compound 0.00316 µM): 77%
viability, T/C (second compound 0.316 µM, first compound 0.01 µM): 56.7%
viability, T/C [7]: 77.3%
viability, T/C [8]: 80.2%
viability, T/C (second compound 1 µM, first compound 0.000316 µM): 99.4%
viability, T/C (second compound 1 µM, first compound 0.001 µM): 58.1%
viability, T/C (second compound 1 µM, first compound 0.00316 µM): 82.4%
viability, T/C (second compound 1 µM, first compound 0.01 µM): 65.5%
viability, T/C [13]: 59.1%
viability, T/C [14]: 82.9%
viability, T/C (second compound 3.16 µM, first compound 0.000316 µM): 57.1%
viability, T/C (second compound 3.16 µM, first compound 0.001 µM): 49.4%
viability, T/C (second compound 3.16 µM, first compound 0.00316 µM): 59.5%
viability, T/C (second compound 3.16 µM, first compound 0.01 µM): 53.7%
viability, T/C [19]: 59.9%
viability, T/C [20]: 75.1%
viability, T/C (second compound 10 µM, first compound 0.000316 µM): 62%
viability, T/C (second compound 10 µM, first compound 0.001 µM): 68.4%
viability, T/C (second compound 10 µM, first compound 0.00316 µM): 84.7%
viability, T/C (second compound 10 µM, first compound 0.01 µM): 65.7%
viability, T/C [25]: 65.4%
viability, T/C [26]: 65.8%
